Test results as given in patent US20240360148A1 (SUVALENT THERAPEUTICS, INC., priority 2021, published 2024).
Where two headings read alike, the source gives them in different places.

Key:
[1] = test system: sumoylation levels (SUMO 2/3 conjugates) in HCT-116 cells; assay: HCT-116 4 Hour Cell Assay (Western, SUMO 2/3 conjugates); assay type: cell-based; conditions: 4 h treatment, Anti-Sumo 2-3 immunoblot, read-out: HCT-116 Western 4 h IC50 (μM) Ave
Procedure: This protocol describes the procedures used to assess the effects of compounds of interest on sumoylation levels. Immunoblot of SUMO 2/3 conjugates are performed and IC50 curves are generated upon quantification of sumoylations bands. HCT-116 cells are seeded in a 12 well plate (500,000 cells/well). The following day the cells are treated with compounds of interest (resuspended in DMSO) for 4 hours (11 concentrations with a three-fold dilution; starting concentration 25 μM) Following 4 hours of incubation the cells are washed with ice cold PBS 1×and protein extraction is performed with RIPA buffer supplemented with phosphatases and proteases inhibitors, 25 mM of NEM and 50 units/mL of Benzonase. Samples undergo centrifugation at 13,000 RPM, 4° C., for 10 minutes and the supernatant is collected. Protein quantification is performed using BCA. Non-Reducing Laemmli Buffer is added to the samples. Samples are heated at 75° C. for 10 minutes, and are centrifuged for 3 minutes at 9000 RPM Nupage 4-12% Bis Tris gels and 1× MOPS buffer (Fisher Scientific)+1× NuPAGE Antioxidant (Invitrogen) are used to perform the SDS-PAGE gel electrophoresis (20 to 40 μg of proteins are loaded in the gels). Proteins are then transferred to PVDF membranes and the level of total proteins are measured by staining with Revert Total Protein Stain and the fluorescent bands are acquired using the LI-COR FC (700 nm for 1 min) Membranes are blocked for 5 minutes with Bio-Rad Blocking Buffer and are subsequently incubated over night at 4° C. with Anti-Sumo 2-3 mAb (M BL #M114-3, 1:1000 in Bio-Rad Blocking Buffer, 0.2% Tween 20) Membranes are washed with 1×TBS-T (3 times for 5 minutes) and sumoylation is detected using Li-cor IRDye 800CW Goat anti-Mouse IgG secondary antibody (1:10,000 dilution) upon 1 hour of incubation in blocking buffer with 0.2% Tween 20 and 0.01% SDS. After the incubation, the membranes are washed with 1×TBS-T (3 times for 5 minutes). To visualize the fluorescent bands the membranes are scanned with LI-COR FC (700 nm for 1 min and […] for 2 mins). Sumoylation levels are quantified upon normalization with total protein levels, using the LI-COR Image Studio Lite 5.2 Software.

[2] = target: SAE1 (Homo sapiens (Human), UniProt Q9UBE0+Q9UBT2); assay: SAE High Throughput Biochemical Assay (HTRF), 15 min preincubation; conditions: read-out: 15 min preincubation HTRF IC50 (μM) Ave, SAE1 12.5 nM, ATP 100 μM
SAE1, sequence (Q9UBE0 whole entry): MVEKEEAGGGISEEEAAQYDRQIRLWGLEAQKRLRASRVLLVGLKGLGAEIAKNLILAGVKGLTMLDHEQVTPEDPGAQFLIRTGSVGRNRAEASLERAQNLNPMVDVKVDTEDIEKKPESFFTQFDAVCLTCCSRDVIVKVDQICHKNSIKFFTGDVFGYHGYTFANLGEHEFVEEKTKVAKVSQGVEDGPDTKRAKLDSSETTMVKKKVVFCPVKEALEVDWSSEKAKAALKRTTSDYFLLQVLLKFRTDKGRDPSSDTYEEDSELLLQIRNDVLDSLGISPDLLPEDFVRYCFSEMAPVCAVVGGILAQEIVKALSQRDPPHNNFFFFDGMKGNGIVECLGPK
SAE1, sequence (Q9UBT2 whole entry): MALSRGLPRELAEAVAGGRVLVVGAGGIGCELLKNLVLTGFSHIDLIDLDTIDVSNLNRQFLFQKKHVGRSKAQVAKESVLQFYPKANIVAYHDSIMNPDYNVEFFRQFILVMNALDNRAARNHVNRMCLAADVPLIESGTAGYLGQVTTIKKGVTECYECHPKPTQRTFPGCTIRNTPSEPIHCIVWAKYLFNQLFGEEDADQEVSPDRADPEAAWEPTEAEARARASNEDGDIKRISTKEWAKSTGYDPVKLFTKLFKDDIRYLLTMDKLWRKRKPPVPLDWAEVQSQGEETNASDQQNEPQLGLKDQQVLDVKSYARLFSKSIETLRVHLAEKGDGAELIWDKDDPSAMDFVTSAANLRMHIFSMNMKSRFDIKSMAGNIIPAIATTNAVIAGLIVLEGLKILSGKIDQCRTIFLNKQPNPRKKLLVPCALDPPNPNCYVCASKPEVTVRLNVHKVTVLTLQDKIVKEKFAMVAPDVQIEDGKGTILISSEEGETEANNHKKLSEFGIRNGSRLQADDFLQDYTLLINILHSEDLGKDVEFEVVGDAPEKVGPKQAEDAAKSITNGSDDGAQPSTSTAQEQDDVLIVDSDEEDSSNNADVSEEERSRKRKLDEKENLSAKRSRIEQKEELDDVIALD
In short: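 SAE1 (12.5 nM) was preincubated with compound for 15 min at RT in HEPES pH 7.5, 0.1% BSA, 10 mM MgCl2. The reaction was then started with SUMO-GST and UBC9-His (40 nM each) plus 100 μM ATP for 45 min. After KF stop, HTRF (anti-GST-XL665/anti-His-EuK) was read at 2 h and overnight; some compounds were tested singly at 25 micromolar as percent of control.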

## CCn1cc(-c2c(Cl)cc(F)cc2C2CN(C(=O)/C=C/CN(C)C)Cc3sc(C#N)cc32)c(C(F)(F)F)n1 (stereo not shown) [Example 186, (E)-4-(3-Chloro-2-(1-ethyl-3-(trifluoromethyl)-1 H-pyrazol-4-yl)-5-fluorophenyl)-6-(4-(dimethylamino)but-2-enoyl)-4,5,6,7-tetrahydrothieno[2,3-c]pyridine-2-carbonitrile]
[1]; Homo sapiens, HCT-116, 4 h
  IC50: 2.13 µM
[2]
  IC50: 6.37 µM

## CCn1cc(-c2c(F)cccc2[C@@H]2CN(C(=O)/C=C/[C@@H]3C[C@H]4C[C@H]4N3)Cc3sc(C#N)cc32)c(C(F)(F)F)n1 [Example 92, (S)-6-((E)-3-((IR,3S,5R)-2-azabicyclo[3.1.0]hexan-3-yl)acryloyl)-4-(2-(1-ethyl-3-(trifluoromethyl)-1H pyrazol-4-yl)-3-fluorophenyl)-4,5,6,7-tetrahydrothieno[2,3-c]pyridine-2-carbonitrile]
[1]
  IC50: 0.451 µM
[2]
  IC50: 0.4 µM

## CCn1cc(-c2c(F)cccc2[C@@H]2CN(C(=O)/C=C/CN)Cc3sc(C#N)cc32)c(C(F)(F)F)n1 [Example 51, (S)-6-((E)-4-aminobut-2-enoyl)-4-((S)-2-(1-ethyl-3-(trifluoromethyl)-1 H-pyrazol-4-yl)-3-fluorophenyl)-4,5,6,7-tetrahydrothieno[2,3-c]pyridine-2-carbonitrile]
[1]; Homo sapiens, HCT-116, 4 h
  IC50: 0.569 µM
[2]
  IC50: 1.29 µM

## CN(C)C/C=C/C(=O)N1Cc2sc(C#N)cc2[C@H](c2cccc(F)c2-c2cn(C)nc2C(F)(F)F)C1 [Example 250, (S)-6-((E)-4-(dimethylamino)but-2-enoyl)-4-((S)-3-fluoro-2-(1-methyl-3-(trifluoromethyl)-1 H-pyrazol-4-yl)phenyl)-4,5,6,7-tetrahydrothieno[2,3-c]pyridine-2-carbonitrile]
[1]; Homo sapiens, HCT-116, 4 h
  IC50: 0.263 µM
[2]
  IC50: 0.76 µM

## CCn1cc(-c2c(F)cccc2[C@@H]2CN(C(=O)/C=C/CNC(C)(C)C)Cc3sc(C#N)cc32)c(C(F)(F)F)n1 [Example 127, (S, E)-6-(4-(tert-butylamino)but-2-enoyl)-4-(2-(1-ethyl-3-(trifluoromethyl)-1 H pyrazol-4-yl)-3-fluorophenyl)-4,5,6,7-tetrahydrothieno[2,3-c]pyridine-2-carbonitrile]
[1]; Homo sapiens, HCT-116, 4 h
  IC50: 0.225 µM
[2]
  IC50: 1.07 µM

## CCn1cc(-c2c(F)cccc2[C@@H]2CN(C(=O)/C=C/C3CC(F)(F)CN3)Cc3sc(C#N)cc32)c(C(F)(F)F)n1 (stereo partly drawn) [Example 253, (S)-6-((E)-3-((S)-4,4-difluoropyrrolidin-2-yl)acryloyl)-4-((S)-2-(1-ethyl-3-(trifluoromethyl)-1 H-pyrazol-4-yl)-3-fluorophenyl)-4,5,6,7-tetrahydrothieno[2,3-c]pyridine-2-carbonitrile 2,2,2-trifluoroacetate]
[1]; Homo sapiens, HCT-116, 4 h
  IC50: 0.919 µM
[2]
  IC50: 2.92 µM

## CCNC/C=C/C(=O)N1Cc2sc(C#N)cc2[C@H](c2cccc(F)c2-c2cn(CC)nc2C(F)(F)F)C1 [Example 100, (S, E)-4-(2-(1-Ethyl-3-(trifluoromethyl)-1 H-pyrazol-4-yl)-3-fluorophenyl)-6-(4-(ethylamino)but-2-enoyl)-4,5,6,7-tetrahydrothieno[2,3-c]pyridine-2-carbonitrile]
[1]; Homo sapiens, HCT-116, 4 h
  IC50: 0.174 µM
[2]
  IC50: 1.38 µM

## CCn1cc(-c2c(F)cc(F)cc2C2CN(C(=O)/C=C/CN(C)C)Cc3sc(C#N)cc32)c(C(F)(F)F)n1 (stereo not shown) [Example 183, (E)-6-(4-(Dimethylamino)but-2-enoyl)-4-(2-(1-ethyl-3-(trifluoromethyl)-1 H-pyrazol-4-yl)-3,5-difluorophenyl)-4,5,6,7-tetrahydrothieno[2,3-c]pyridine-2-carbonitrile]
[1]; Homo sapiens, HCT-116, 4 h
  IC50: 0.321 µM
[2]
  IC50: 2.16 µM

## CCn1cc(-c2ccccc2[C@@H]2CN(C(=O)/C=C/[C@@H]3C[C@@H]4C[C@@H]4N3)Cc3sc(C#N)cc32)c(C(F)(F)F)n1 [Example 117, (S)-6-((E)-3-((1S,3S,5S)-2-Azabicyclo[3.1.0]hexan-3-yl)acryloyl)-4-(2-(1-ethyl-3-(trifluoromethyl)-1H pyrazol-4-yl)phenyl)-4,5,6,7-tetrahydrothieno[2,3-c]pyridine-2-carbonitrile]
[1]; Homo sapiens, HCT-116, 4 h
  IC50: 0.427 µM
[2]
  IC50: 1.16 µM

## CCCCNC/C=C/C(=O)N1Cc2sc(C#N)cc2[C@H](c2ccccc2-c2cn(CC)nc2C(F)(F)F)C1 [Example 103, (S, E)-6-(4-(Butylamino)but-2-enoyl)-4-(2-(1-ethyl-3-(trifluoromethyl)-1 H-pyrazol-4-yl)phenyl)-4,5,6,7-tetrahydrothieno[2,3-c]pyridine-2-carbonitrile]
[1]; Homo sapiens, HCT-116, 4 h
  IC50: 1.66 µM
[2]
  IC50: 2.66 µM

## C=CC(=O)N1Cc2sc(C#N)cc2C(c2ccc(NC(C)=O)cc2-c2cn(CC)nc2C(F)(F)F)C1 (stereo not shown) [Compound 230]
[1]; Homo sapiens, HCT-116, 4 h
  IC50: 5.39 µM
[2]
  IC50: 1.1 µM

## CCn1cc(-c2c(F)cccc2[C@@H]2CN(C(=O)/C=C/[C@@H]3CCN3)Cc3sc(C#N)cc32)c(C(F)(F)F)n1 [Example 53, (S)-6-((E)-3-((S)-azetidin-2-yl)acryloyl)-4-((S)-2-(1-ethyl-3-(trifluoromethyl)-1 H-pyrazol-4-yl)-3-fluorophenyl)-4,5,6,7-tetrahydrothieno[2,3-c]pyridine-2-carbonitrile]
[1]; Homo sapiens, HCT-116, 4 h
  IC50: 0.191 µM
[2]
  IC50: 0.34 µM

## C=C(C(=O)N1Cc2sc(C#N)cc2[C@H](c2ccccc2-c2cn(CC)nc2C(F)(F)F)C1)C(F)(F)F [Example 60, (S)-4-(2-(1-Ethyl-3-(trifluoromethyl)-1 H pyrazol-4-yl)phenyl)-6-(2-(trifluoromethyl)acryloyl)-4,5,6,7-tetrahydrothieno[2,3-c]pyridine-2-carbonitrile]
[1]; Homo sapiens, HCT-116, 4 h
  IC50: 2.59 µM
[2]
  IC50: 1.36 µM

## CCn1cc(-c2c(F)cccc2[C@@H]2CN(C(=O)/C=C/CNC34CC(C3)C4)Cc3sc(C#N)cc32)c(C(F)(F)F)n1 [Example 246, (S, E)-6-(4-(bicyclo[1.1.1]pentan-1-ylamino)but-2-enoyl)-4-(2-(1-ethyl-3-(trifluoromethyl)-1 H-pyrazol-4-yl)-3-fluorophenyl)-4,5,6,7-tetrahydrothieno[2,3-c]pyridine-2-carbonitrile]
[1]; Homo sapiens, HCT-116, 4 h
  IC50: 0.483 µM
[2]
  IC50: 1.65 µM

## CCn1cc(-c2ccccc2[C@@H]2CN(C(=O)/C=C/CNC(C)C)Cc3sc(C#N)cc32)c(C(F)(F)F)n1 [Example 105, (S,E)-4-(2-(1-Ethyl-3-(trifluoromethyl)-1 H-pyrazol-4-yl)phenyl)-6-(4-(isopropylamino)but-2-enoyl)-4,5,6,7-tetrahydrothieno[2,3-c]pyridine-2-carbonitrile]
[1]; Homo sapiens, HCT-116, 4 h
  IC50: 0.62 µM
[2]
  IC50: 2.42 µM

## CCn1cc(-c2ccccc2[C@@H]2CN(C(=O)C#CC3(N)CC3)Cc3sc(C#N)cc32)c(C(F)(F)F)n1 [Example 136, (S)-6-(3-(1-Aminocyclopropyl)propioloyl)-4-(2-(1-ethyl-3-(trifluoromethyl)-1 H-pyrazol-4-yl)phenyl)-4,5,6,7-tetrahydrothieno[2,3-c]pyridine-2-carbonitrile]
[1]; Homo sapiens, HCT-116, 4 h
  IC50: 2.53 µM
[2]
  IC50: 4.13 µM

## Cc1c(C#N)sc2c1[C@H](c1cccc(F)c1-c1cn(C)nc1C(F)(F)F)CN(C(=O)/C=C/[C@@H]1CCCN1)C2 [Example 251, (S)-4-(3-fluoro-2-(1-methyl-3-(trifluoromethyl)-1 H-pyrazol-4-yl)phenyl)-3-methyl-6-((E)-3-((S)-pyrrolidin-2-yl)acryloyl)-4,5,6,7-tetrahydrothieno[2,3-c]pyridine-2-carbonitrile]
[1]; Homo sapiens, HCT-116, 4 h
  IC50: 0.0822 µM
[2]
  IC50: 0.11 µM
